This note sets out measurements from US10426758B2, “Sibiriline derivatives for use for preventing and/or treating disorders associated with cellular necroptosis” (Institut National de la Sante et de la Recherche Medicale …, priority 2015, dated 2019).

SMILES strings stand for the structures.

Holding throughout (assay): Competition binding assay for kinase targets of Sib (456 kinases)
Common to all, as to settings: remaining kinase on the matrix after competition, read-out: Percent Control (%)

For one assay, the target named is T1, EPHB6 (Homo sapiens, UniProt O15197).
T1 sequence (O15197 32-1021): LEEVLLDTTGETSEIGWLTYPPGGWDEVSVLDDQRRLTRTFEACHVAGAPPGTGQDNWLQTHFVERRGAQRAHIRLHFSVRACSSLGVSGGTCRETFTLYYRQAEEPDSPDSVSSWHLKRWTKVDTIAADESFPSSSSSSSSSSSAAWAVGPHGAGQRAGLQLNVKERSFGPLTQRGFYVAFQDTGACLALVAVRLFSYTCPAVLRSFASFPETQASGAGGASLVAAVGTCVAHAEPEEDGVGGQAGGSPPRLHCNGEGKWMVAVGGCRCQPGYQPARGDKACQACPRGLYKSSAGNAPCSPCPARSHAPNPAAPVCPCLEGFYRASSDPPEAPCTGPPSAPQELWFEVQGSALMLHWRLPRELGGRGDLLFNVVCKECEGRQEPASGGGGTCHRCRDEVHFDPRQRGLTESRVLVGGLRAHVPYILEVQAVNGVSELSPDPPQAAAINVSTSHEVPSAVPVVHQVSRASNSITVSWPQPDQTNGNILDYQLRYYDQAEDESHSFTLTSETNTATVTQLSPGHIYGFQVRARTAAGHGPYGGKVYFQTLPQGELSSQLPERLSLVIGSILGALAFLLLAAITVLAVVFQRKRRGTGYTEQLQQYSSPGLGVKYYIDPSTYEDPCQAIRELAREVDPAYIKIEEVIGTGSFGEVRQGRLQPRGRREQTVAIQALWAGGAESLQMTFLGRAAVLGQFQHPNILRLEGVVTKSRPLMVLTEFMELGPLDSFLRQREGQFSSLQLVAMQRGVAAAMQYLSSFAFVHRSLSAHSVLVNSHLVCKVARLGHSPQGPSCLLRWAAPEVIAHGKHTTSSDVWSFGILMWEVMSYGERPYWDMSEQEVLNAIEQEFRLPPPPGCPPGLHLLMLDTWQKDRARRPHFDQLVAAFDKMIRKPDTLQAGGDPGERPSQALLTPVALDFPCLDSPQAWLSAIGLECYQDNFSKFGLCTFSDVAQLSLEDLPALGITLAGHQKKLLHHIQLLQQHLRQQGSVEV
How it is done:
(§1) The assay is performed by combining three components: DNA-tagged kinase (a total of 456 kinases were tested); immobilized ligand; and a test compound (here Sib). The ability of Sib to compete with the immobilized ligand is measured via quantitative PCR of the DNA tag.

A further assay addresses T2, DRAK2 (Homo sapiens, UniProt O94768).
T2 sequence (O94768 1-372): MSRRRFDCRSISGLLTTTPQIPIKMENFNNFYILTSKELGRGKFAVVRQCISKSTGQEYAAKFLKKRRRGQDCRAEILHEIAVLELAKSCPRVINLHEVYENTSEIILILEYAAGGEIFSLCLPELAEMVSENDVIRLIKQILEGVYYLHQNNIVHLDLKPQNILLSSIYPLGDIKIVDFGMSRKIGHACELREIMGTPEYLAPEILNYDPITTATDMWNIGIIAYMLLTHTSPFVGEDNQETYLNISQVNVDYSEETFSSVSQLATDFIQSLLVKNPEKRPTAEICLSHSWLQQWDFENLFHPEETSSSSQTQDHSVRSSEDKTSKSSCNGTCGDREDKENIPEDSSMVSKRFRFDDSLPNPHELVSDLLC
Here is the method:
as §1

The target of a further assay is KIT(V559D) (Homo sapiens, UniProt P10721, V559D). How it is done:
as §1

The target in the next assay is KIT (Homo sapiens, UniProt P10721). How it is done:
as §1

For assay [1], the target named is T3, JAK2 (JH1domain-catalytic) (Homo sapiens, UniProt O60674).
T3 construct: JAK2(JH1domain-catalytic)
How it is done: as §1

In a further assay the target is T4, RIPK1 (Homo sapiens, UniProt Q13546).
T4 construct: purchased DiscoveRx Corporation (KdELECT service)
T4 sequence (Q13546 1-671): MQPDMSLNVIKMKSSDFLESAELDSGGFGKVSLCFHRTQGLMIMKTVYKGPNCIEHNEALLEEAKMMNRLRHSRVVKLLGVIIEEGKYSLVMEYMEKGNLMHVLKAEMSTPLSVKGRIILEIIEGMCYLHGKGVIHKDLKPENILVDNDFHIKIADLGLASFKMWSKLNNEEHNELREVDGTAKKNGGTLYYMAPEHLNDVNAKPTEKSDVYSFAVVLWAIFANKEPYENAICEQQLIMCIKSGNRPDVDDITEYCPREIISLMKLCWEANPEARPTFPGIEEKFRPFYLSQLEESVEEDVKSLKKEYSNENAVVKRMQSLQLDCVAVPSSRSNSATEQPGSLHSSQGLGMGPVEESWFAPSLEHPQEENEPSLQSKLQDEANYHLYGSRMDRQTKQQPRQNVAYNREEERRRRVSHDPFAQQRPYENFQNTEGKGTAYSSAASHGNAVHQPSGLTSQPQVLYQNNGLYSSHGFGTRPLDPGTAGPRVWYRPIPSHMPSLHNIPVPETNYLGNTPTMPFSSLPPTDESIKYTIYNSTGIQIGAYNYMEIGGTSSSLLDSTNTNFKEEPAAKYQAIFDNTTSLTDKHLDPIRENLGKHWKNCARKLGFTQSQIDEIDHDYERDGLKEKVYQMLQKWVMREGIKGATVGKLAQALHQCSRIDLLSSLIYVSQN
Here is the method: as §1

A further assay has as its target PDGFRB (Homo sapiens, UniProt P09619). Here is the method: as §1
For another assay, the target named is T5, AURKC (Homo sapiens, UniProt Q9UQB9).
T5 sequence (Q9UQB9 1-309): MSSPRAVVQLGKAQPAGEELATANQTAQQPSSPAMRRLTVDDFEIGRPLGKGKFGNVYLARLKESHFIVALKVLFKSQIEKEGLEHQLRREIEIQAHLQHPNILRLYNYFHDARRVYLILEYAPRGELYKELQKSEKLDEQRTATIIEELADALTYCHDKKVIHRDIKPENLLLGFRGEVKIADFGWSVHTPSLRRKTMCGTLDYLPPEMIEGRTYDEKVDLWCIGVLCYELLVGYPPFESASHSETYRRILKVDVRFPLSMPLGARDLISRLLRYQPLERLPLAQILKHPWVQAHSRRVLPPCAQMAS
How it is done: as §1

In assay [2] the target is ABL1(H396P)-nonphosphorylated (Homo sapiens, UniProt P00519, H396P). How it is done:
as §1

T3 sequence (O60674 849-1124 limits assumed): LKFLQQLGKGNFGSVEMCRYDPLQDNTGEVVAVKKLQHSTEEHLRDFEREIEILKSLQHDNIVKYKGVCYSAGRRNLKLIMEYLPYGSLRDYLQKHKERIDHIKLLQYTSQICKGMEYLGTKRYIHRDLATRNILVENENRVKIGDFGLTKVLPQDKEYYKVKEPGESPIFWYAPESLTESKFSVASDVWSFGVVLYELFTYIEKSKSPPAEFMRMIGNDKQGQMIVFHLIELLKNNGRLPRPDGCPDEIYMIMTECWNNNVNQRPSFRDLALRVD
PDGFRB, sequence (P09619 33-1106): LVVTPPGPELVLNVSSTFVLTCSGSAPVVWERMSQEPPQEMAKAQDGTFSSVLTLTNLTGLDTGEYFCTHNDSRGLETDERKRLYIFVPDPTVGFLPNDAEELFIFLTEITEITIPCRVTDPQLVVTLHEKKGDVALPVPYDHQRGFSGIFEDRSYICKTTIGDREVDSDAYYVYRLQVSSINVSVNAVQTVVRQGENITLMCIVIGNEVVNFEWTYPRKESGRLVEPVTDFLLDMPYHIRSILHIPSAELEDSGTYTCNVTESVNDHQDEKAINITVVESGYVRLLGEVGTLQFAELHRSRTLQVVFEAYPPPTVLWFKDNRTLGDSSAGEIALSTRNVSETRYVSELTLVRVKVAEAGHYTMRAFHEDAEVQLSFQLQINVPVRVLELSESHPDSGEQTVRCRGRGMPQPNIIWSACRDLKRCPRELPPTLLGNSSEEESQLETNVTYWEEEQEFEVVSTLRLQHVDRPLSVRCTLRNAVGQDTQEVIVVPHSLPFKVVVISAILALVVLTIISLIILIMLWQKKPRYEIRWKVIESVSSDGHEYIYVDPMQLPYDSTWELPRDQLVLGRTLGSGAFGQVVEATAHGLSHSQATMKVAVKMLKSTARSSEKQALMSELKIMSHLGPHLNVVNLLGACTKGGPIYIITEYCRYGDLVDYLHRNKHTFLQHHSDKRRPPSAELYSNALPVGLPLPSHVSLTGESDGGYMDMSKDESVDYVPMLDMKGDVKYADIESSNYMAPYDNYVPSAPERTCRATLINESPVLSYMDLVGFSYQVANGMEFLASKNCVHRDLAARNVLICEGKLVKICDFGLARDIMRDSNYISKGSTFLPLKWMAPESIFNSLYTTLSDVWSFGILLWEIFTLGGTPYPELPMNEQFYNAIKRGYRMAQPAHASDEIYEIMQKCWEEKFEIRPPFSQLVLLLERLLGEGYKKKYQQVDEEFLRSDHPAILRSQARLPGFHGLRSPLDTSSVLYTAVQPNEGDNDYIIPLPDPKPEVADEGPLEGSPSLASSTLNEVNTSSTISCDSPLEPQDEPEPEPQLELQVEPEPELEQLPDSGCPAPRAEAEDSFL
KIT(V559D), sequence (P10721 26-976 V559D): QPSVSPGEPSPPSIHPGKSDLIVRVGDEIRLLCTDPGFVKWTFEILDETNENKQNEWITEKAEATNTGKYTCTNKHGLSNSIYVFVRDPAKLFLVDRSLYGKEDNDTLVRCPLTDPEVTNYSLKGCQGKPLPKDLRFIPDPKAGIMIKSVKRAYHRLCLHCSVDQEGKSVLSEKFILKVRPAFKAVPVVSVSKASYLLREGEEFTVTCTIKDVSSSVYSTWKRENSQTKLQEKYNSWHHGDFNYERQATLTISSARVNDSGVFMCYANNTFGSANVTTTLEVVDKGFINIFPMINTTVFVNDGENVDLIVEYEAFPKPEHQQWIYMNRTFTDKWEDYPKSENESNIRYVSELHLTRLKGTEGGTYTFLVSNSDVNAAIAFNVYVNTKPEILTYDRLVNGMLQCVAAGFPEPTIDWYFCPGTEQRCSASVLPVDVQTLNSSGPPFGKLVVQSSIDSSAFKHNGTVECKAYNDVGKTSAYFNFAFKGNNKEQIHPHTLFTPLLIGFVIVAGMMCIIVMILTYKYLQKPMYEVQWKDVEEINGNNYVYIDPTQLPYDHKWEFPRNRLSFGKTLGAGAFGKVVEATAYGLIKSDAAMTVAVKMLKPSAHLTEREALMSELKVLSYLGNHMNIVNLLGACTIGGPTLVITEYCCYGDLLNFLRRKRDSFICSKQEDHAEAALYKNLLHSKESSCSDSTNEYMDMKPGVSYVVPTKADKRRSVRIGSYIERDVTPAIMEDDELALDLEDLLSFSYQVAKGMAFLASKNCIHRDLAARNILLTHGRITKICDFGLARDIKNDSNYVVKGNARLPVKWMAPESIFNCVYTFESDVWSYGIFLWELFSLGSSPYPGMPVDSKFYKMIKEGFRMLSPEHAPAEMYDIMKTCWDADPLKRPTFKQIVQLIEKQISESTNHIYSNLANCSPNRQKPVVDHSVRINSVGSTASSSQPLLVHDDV
KIT, sequence (P10721 26-976): as the sequence (P10721 26-976 V559D) above, with D534V counted along it

Regarding `Oc1ccc(-c2cc3cccnc3[nH]2)cc1` [compound 2, 4-(1H-pyrrolo[2,3-b]pyridin-2-yl)phenol], the remaining binding at 10 µM came to 0.65% at EPHB6; 0.75% on DRAK2; 0.4% on KIT(V559D); 0.8% at KIT; 0.2% in [1]; 0.2% at RIPK1. Moreover, the remaining binding at 10 µM amounted to 0.75% at PDGFRB, 0.7% on AURKC and 1% in [2].
